Source: US11845770B2, “Ascaroside derivatives and methods of use” (California Institute of Technology, priority 2019, dated 2023)

Experiments:
CYP2C19 = target: T1, CYP2C19 (Homo sapiens, UniProt P33261); experiment: 5 in 1 CYP inhibition assay, CYP2C19; format: in vitro ADME; conditions: microsomes, probe S-mephenytoin (4′-hydroxylation), test compound 10 μM, n=2, read-out: inhibition of cytochrome P450 isoform 2C19
T1 construct: from tissue
Description: (§1) CYP450 dependent activities were determined using a marker substrate cocktail. For each reaction, enzyme activities in the presence and absence of test compound (10 μM) were measured in duplicate. A known inhibitor for each isoform, tested at a single concentration (3 μM, n=2), was included as positive control. Incubation mixtures containing microsomes, substrate, and standard inhibitor or test compound were warmed at 37° C. for 10 minutes. Reactions were initiated by addition of the NADPH and incubated for 10 min. [table] After incubation, ice cold acetonitrile was added to terminate the reaction. Generation of metabolites from the substrate reactions was determined by LC-MS/MS.

CYP2C9 = target: T2, CYP2C9 (Homo sapiens, UniProt P11712); experiment: 5 in 1 CYP inhibition assay, CYP2C9; format: in vitro ADME; conditions: microsomes, probe diclofenac (4′-hydroxylation), test compound 10 μM, n=2, read-out: inhibition of cytochrome P450 isoform 2C9
T2 construct: from tissue
Description: as §1

Caco-2 cells = experiment: Bidirectional permeability in Caco-2 cells; format: in vitro ADME; conditions: 2 μM, 2 hours
Description: Caco-2 cells purchased from ATCC were seeded onto […] (PET) in 96-well BD Insert plates at 1×10^5 cells/cm^2, and the medium was refreshed every 4˜5 days until to the 21st to 28th day for formation of a confluent cell monolayer.
The transport buffer in the study was Hank's balanced salt solution (HBSS) with 10 mM HEPES at pH 7.40±0.05. Compound 1 was tested at 2 μM bi-directionally in duplicate. Digoxin was tested at 10 μM bi-directionally in duplicate, while nadolol and metoprolol were tested at 2 μM in A to B direction in duplicate. Final DMSO concentration was adjusted to less than 1%. […] Concentrations of compound 1 and […] in starting solution, donor solution, and receiver solution were quantified by LC/MS/MS methodologies, using peak area ratio of analyte/internal standard. […]
The apparent permeability coefficient Papp (cm/s) was calculated using the equation: Papp=(dCr/dt)×Vr/(A×C0) where dCr/dt is the cumulative concentration of compound in the receiver chamber as a function of time (μM/s); Vr is the solution volume in the receiver chamber (0.075 mL on the apical side, 0.25 mL on the basolateral side); A is the surface area for the transport, i.e. 0.0804 cm^2 for the area of the monolayer; Co is the initial concentration in the donor chamber (μM).
The efflux ratio was calculated using the equation: Efflux Ratio=Papp(BA)/Papp(AB) […]

human naïve T cells = experiment: Stimulation of blood derived naïve T cells with Der p1 (house dust mite) antigen; format: cell-based; conditions: human naïve T cells, Der p1 antigen 5 days; 0.1-100 μM; FIG. 14
Description: Naïve T cells from peripheral blood samples were collected and processed using MACSxpress® Whole Blood Pan T Cell Isolation Kit (Miltenyi Biotec), according to the manufacturer's protocol. Isolated naïve T cells were cultured in RPMI medium supplemented with 5% Fetal Bovine Serum (FBS) at 37° C. with 5% (v/v) CO2. T cells were seeded in 24 well plates at a density of 0.5×10^6 cells per well. The cells were pre-treated with the compounds (0, 0.1, 1.0, 10, 100 μM) for 1 hour prior to stimulation. Cells were stimulated with […] of Dermatophagoides pteronyssinus (Der p1) antigen. After 48 hours, fresh […] of Der p1 was added and continued incubating for a further 72 hours at 37° C. with 5% (v/v) CO2. Overall T cells were stimulated with […] of Der p1 antigen for 5 days before supernatants were collected and stored at −80° C. until quantitative detection assays are performed.
Human Interleukin-4 (IL-4), Interleukin-5 (IL-5), Interleukin-6 (IL-6), Interleukin-8 (IL-8), Interleukin-13 ([…]), Interleukin-23 (IL-23), and Interferon gamma (IFNγ) released from supernatants collected post stimulation were measured using Human Magnetic Luminex® Assay Kit. Human Transforming Growth Factor beta (TGFβ) was measured using an Enzyme-Linked Immunosorbent Assay (ELISA)-based analysis.

CYP2D6 = target: T3, CYP2D6 (Homo sapiens, UniProt P10635); experiment: 5 in 1 CYP inhibition assay, CYP2D6; format: in vitro ADME; conditions: microsomes, probe dextromethorphan (O-demethylation), test compound 10 μM, n=2, read-out: inhibition of cytochrome P450 isoform 2D6
T3 construct: from tissue
Description: as §1

[1] = test system: A549 human alveolar epithelial cells; experiment: Stimulation of A549 human lung carcinoma cell line, cytokine expression; format: cell-based; conditions: A549, 10 ng/mL TNFα + 10 ng/mL IL-1β, 48 hours; for percent inhibition relative to Stimulated of IL-8 expression: FIG. 16
Description: A549 cells are cultured in DMEM supplemented with 2 mM glutamine and 10% Fetal Bovine Serum (FBS) at 37° C. with 5% (v/v) CO2. Cells are grown to approximately 80% confluency before being passage and media is changed every 2-3 days. A549 cells are seeded in 24-well plates at a density of 0.5×10^6 cells per well at 37° C. with 5% (v/v) CO2. The cells are pre-treated with the compounds (0, 1.0, 10, 100 μM) for 1 hour prior to addition of 10 ng/mL of TNFα and 10 ng/mL of IL-1β for 48 hours at 37° C. with 5% (v/v) CO2. Supernatants were collected and stored at −80° C. until quantitative detection assays are performed.
Human Eotaxin, Monocyte Chemoattractant Protein-1 (MCP-1), Interleukin-6 (IL-6), Interleukin-25 (IL-25), Interleukin-33 (IL-33), Thymic stromal lymphopoietin (TSLP), and Granulocyte-Macrophage Colony-Stimulating Factor (GM-CSF) released from supernatants collected post stimulation were measured using Human Magnetic Luminex® Assay Kit. Human CCL5/RANTES was measured using an Enzyme-Linked Immunosorbent Assay (ELISA)-based analysis.

CYP3A4 = target: T4, CYP3A4 (Homo sapiens, UniProt P08684); experiment: 5 in 1 CYP inhibition assay, CYP3A4; format: in vitro ADME; conditions: microsomes, probe midazolam (1′-hydroxylation), test compound 10 μM, n=2, read-out: inhibition of cytochrome P450 isoform 3A4
T4 construct: from tissue
Description: as §1

T2 sequence (P11712 whole entry, canonical isoform): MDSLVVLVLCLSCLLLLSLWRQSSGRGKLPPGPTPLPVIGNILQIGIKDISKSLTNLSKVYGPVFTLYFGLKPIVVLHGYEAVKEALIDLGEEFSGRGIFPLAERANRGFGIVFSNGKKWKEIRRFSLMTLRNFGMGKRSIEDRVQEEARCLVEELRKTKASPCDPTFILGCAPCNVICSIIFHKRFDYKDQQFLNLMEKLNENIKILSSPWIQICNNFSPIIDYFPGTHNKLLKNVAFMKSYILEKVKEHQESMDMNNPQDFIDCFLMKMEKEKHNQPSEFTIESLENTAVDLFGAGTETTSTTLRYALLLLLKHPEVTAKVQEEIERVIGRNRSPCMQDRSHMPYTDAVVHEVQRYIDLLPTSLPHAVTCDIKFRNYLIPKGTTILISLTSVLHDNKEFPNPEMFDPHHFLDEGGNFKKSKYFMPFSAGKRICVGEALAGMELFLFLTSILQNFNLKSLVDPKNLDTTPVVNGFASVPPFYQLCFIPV
T3 sequence (P10635 whole entry, canonical isoform): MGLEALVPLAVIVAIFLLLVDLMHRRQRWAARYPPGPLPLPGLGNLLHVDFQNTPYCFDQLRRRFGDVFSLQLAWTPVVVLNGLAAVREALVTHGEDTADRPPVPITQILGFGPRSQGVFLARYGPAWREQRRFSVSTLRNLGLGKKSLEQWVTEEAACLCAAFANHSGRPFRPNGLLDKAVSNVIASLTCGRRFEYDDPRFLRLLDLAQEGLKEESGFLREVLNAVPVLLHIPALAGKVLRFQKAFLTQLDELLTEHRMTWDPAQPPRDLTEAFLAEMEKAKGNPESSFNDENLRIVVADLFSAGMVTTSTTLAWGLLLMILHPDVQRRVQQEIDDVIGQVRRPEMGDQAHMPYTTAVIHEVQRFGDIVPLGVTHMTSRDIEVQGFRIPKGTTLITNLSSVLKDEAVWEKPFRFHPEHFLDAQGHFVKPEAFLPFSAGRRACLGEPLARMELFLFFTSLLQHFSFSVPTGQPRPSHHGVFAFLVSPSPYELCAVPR
T1 sequence (P33261 whole entry, canonical isoform): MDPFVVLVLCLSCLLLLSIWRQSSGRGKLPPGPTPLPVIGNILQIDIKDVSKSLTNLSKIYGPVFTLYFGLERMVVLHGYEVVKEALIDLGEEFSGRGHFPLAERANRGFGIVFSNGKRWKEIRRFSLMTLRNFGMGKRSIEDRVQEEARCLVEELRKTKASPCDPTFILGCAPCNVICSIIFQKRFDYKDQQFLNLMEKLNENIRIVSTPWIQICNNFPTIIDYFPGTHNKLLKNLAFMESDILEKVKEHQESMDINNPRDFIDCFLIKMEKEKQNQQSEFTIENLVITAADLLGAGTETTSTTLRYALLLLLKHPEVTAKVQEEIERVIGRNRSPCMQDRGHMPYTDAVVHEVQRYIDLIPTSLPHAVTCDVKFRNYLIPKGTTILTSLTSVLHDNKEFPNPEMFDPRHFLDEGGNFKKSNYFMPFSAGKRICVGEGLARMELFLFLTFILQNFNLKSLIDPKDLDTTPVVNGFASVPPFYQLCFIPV
T4 sequence (P08684 whole entry, canonical isoform): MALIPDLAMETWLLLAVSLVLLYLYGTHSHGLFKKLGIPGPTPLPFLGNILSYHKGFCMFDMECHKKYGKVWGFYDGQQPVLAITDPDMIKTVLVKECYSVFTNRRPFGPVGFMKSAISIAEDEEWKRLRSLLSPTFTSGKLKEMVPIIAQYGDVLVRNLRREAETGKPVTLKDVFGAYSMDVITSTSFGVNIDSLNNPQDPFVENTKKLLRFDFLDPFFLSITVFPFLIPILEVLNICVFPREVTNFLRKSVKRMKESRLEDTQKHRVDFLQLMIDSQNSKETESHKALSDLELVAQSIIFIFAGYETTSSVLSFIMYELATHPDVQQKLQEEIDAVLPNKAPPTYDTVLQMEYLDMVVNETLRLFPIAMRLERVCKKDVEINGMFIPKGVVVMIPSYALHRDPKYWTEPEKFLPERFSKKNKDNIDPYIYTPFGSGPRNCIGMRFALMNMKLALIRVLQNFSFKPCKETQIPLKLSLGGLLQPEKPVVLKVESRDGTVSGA

C[C@H](CC/C=C/C(=O)OC(C)(C)C)O[C@@H]1O[C@@H](C)[C@H](O)C[C@H]1O [Compound 1, tert-butyl (2E,6R)-6-{[(2R,3R,5R,6S)-3,5-dihydroxy-6-methyloxan-2-yl]oxy}hept-2-enoate]
inhibition at 10 min, 10 µM (CYP2C19): 16.2% | inhibition at 10 min, 10 µM (CYP2C9): 4.3% | bidirectional permeability (Caco-2 cells): high bidirectional permeability | percent inhibition relative to Stimulated of IFNγ expression (human naïve T cells): in a statistically significant, dose-dependent manner | percent inhibition relative to Stimulated of IL-5 expression (human naïve T cells): in a statistically significant, dose-dependent manner | percent inhibition relative to Stimulated of TGFβ expression (human naïve T cells): in a statistically significant, dose-dependent manner | inhibition at 10 min, 10 µM (CYP2D6): 10.1% | percent inhibition relative to Stimulated of IL-8 expression ([1]; 1.0, 10, 100 μM): dose-dependent inhibition | percent inhibition relative to Stimulated of GM-CSF expression ([1]; 1.0, 10, 100 μM, FIG. 16, 17): statistically significant, dose-dependent inhibition | percent inhibition relative to Stimulated of IL-25 expression ([1]; 1.0, 10, 100 μM, FIG. 16, 17): dose-dependent inhibition | percent inhibition relative to Stimulated of IL-33 expression ([1]; 1.0, 10, 100 μM, FIG. 16, 17): statistically significant, dose-dependent inhibition | percent inhibition relative to Stimulated of MCP-1 expression ([1]; 1.0, 10, 100 μM, FIG. 16, 17): statistically significant, dose-dependent inhibition | percent inhibition relative to Stimulated of Eotaxin expression ([1]; FIG. 18): robust, statistically significant inhibition | percent inhibition relative to Stimulated of IL-6 expression ([1]; FIG. 18): robust, statistically significant inhibition | percent inhibition relative to Stimulated of RANTES expression ([1]; FIG. 18): robust, statistically significant inhibition | percent inhibition relative to Stimulated of TSLP expression ([1]; FIG. 18): robust, statistically significant inhibition | inhibition at 10 min, 10 µM (CYP3A4): 1%

C[C@H](CC/C=C/C(=O)O)O[C@@H]1O[C@@H](C)[C@H](O)C[C@H]1O [ascr #7, reference compound]
inhibition at 10 min, 10 µM (CYP2C19): 4% | inhibition at 10 min, 10 µM (CYP2C9): 0% | bidirectional permeability (Caco-2 cells): low bidirectional permeability | percent inhibition relative to Stimulated of IFNγ expression (human naïve T cells): statistically significant, robust blocking | percent inhibition relative to Stimulated of IL-5 expression (human naïve T cells): dose-dependent inhibition | percent inhibition relative to Stimulated of TGFβ expression (human naïve T cells): slight attenuation | inhibition at 10 min, 10 µM (CYP2D6): 4.6% | percent inhibition relative to Stimulated of IL-8 expression ([1]; 1.0, 10, 100 μM): did not influence | percent inhibition relative to Stimulated of GM-CSF expression ([1]; 1.0, 10, 100 μM, FIG. 16, 17): statistically significant but not dose-dependent inhibition | percent inhibition relative to Stimulated of IL-25 expression ([1]; 1.0, 10, 100 μM, FIG. 16, 17): did not influence | percent inhibition relative to Stimulated of MCP-1 expression ([1]; 1.0, 10, 100 μM, FIG. 16, 17): statistically significant but not dose-dependent inhibition | inhibition at 10 min, 10 µM (CYP3A4): 0%
